For the assay, the target named is T1, human TLX (Homo sapiens, UniProt Q9Y466).
T1 construct: expressed in transfected cells; host or cells: HEK293T
The assay is described as follows: Gal4 hybrid reporter gene assay (TLX modulation). The settings on record: for EC50: Gal4-TLX hybrid reporter in HEK293T cells, 16 h incubation; for relative reporter activity: DMSO control = 1. The arrangement: key to relative reporter activity: fraction of DMSO control (DMSO = 1). It is filed as cell-based. The method, then:
In the Tables, the TLX relative reporter activity is expressed as EC50 (in µM) for each listed compound. "EC50" refers to a measure of the concentration of a compound which induces a biological response halfway between the baseline and maximum after a specified exposure time. […] The EC50 is measured via a hybrid reporter gene assay, employing the transfection of a reporter (firefly luciferase with Gal4 response element), a control gene (Renilla luciferase), a transcriptional activator (Gal4-VP16) and a hybrid receptor consisting of the TLX ligand binding domain (LBD) and the Gal4 DNA binding domain (DBD).
Hybrid reporter gene assays. […] After 24 h, medium was changed to Opti-MEM without supplements and cells were transiently transfected using Lipofectamine LTX reagent (Invitrogen, Carlsbad, CA, USA) according to the manufacturer's protocol. Five hours after transfection, cells were incubated with the test compounds in Opti-MEM supplemented with penicillin (100 U/mL), streptomycin (100 µg/mL) and 0.1% DMSO for 16 h before luciferase activity was measured using the Dual-Glo Luciferase Assay System (Promega) according to the manufacturer's protocol on a Tecan Spark luminometer (Tecan Deutschland GmbH, Crailsheim, Germany). Firefly luminescence was divided by Renilla luminescence and multiplied by 1000 resulting in relative light units (RLU) to normalize for transfection efficiency and cell growth. Fold activation was obtained by dividing the mean RLU of test compound by the mean RLU of the untreated control. All samples were tested in at least three biologically independent experiments in duplicates. For dose-response curve fitting and calculation of EC50 values, the equation "[Agonist] vs. response -- Variable slope (four parameters)" was used in GraphPad Prism (version 7.00, GraphPad Software, La Jolla, CA, USA).
On the technique in general: Reporter assays use an easily measured gene product as a stand-in for the process of interest.

[1] abbreviates: minimal remaining or maximum reporter activity after treatment, in brackets below the EC50, <1 agonism, >1 inverse agonism.

T1 sequence (Q9Y466 155-383 limits assumed): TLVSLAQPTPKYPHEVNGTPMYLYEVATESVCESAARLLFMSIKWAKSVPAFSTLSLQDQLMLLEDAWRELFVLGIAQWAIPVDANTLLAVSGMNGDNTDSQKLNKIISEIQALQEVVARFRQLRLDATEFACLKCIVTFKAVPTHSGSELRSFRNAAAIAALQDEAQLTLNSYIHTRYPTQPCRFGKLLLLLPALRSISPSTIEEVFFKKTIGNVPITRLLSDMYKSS

Turning to `CC(=O)Nc1cc(-c2ccnc(C)c2)cc(C(F)(F)F)c1` [compound 79, N-(3-(2-methylpyridin-4-yl)-5-(trifluoromethyl)phenyl)acetamide], the EC50 turned out to be 2.6 ± 0.4 µM. In addition, the relative reporter activity under setting [1] came out at 0.18±0.06. With `Cc1cccc(-c2cc(N)cc(C(F)(F)F)c2)c1` [compound 72, 3'-methyl-5-(trifluoromethyl)-[1,1'-biphenyl]-3-amine], where the note is “at 30 µM”, the relative reporter activity result is “inactive at 30 µM”.

`Cc1ncc(-c2cc(N)cc(C(F)(F)F)c2)cn1` [compound 68, 3-(2-methylpyrimidin-5-yl)-5-(trifluoromethyl)aniline] gave a half-maximal effective concentration (EC50) of 15 ± 6 µM. This compound registered a relative reporter activity under setting [1] of 0.34±0.09.

With `Cc1cc(-c2cc(N)cc(C(F)(F)F)c2)n[nH]1` [compound 43, 3-(5-methyl-1H-pyrazol-3-yl)-5-(trifluoromethyl)aniline], the relative reporter activity entry (at 100 µM) was “(0.29±0.05 at 100 µM)”. `Cc1cc(-c2cc(NC(=O)c3ccc(Cl)c(Cl)c3)cc(C(F)(F)F)c2)ccn1` [compound 78, 3,4-dichloro-N-(3-(2-methylpyridin-4-yl)-5-(trifluoromethyl)phenyl)benzamide]: the midpoint of the response, the EC50, lay at 0.6 ± 0.2 µM. This compound also returned a relative reporter activity under setting [1] of 0.51±0.5.

Compound `Cc1cc(-c2cc(NC(=O)Cc3ccccc3)cc(C(F)(F)F)c2)ccn1` [compound 76, N-(3-(2-methylpyridin-4-yl)-5-(trifluoromethyl)phenyl)-2-phenylacetamide] came in with an EC50 of 0.3 ± 0.07 µM. The compound further showed a relative reporter activity under setting [1] of 0.12±0.06.

Regarding `Cc1cc(-c2cc(N)cc(C(F)(F)F)c2)nn1C` [compound 45, 3-(1,5-dimethyl-1H-pyrazol-3-yl)-5-(trifluoromethyl)aniline], the relative reporter activity entry (at 100 µM) is “(0.56±0.12 at 100 µM)”. In the case of `Nc1cc(-c2cncnc2)cc(C(F)(F)F)c1` [compound 66, 3-(pyrimidin-5-yl)-5-(trifluoromethyl)aniline], a half-maximal effect (EC50) was put at 2.1 ± 0.5 µM. Also, the relative reporter activity under setting [1] came to 0.40±0.06. For `Cc1cc(-c2cc(NC(=O)C(O)(c3ccccc3)C3CCCC3)cc(C(F)(F)F)c2)ccn1` (stereo not shown) [compound 84, 2-cyclopentyl-2-hydroxy-N-(3-(2-methylpyridin-4-yl)-5-(trifluoromethyl)phenyl)-2-phenylacetamide], the relative reporter activity entry (at 3 µM) was “(0.26±0.05 at 3 µM)”. For `Cc1cc(-c2cc(NC(=O)c3cc(C)[nH]n3)cc(C(F)(F)F)c2)ccn1` [compound 86, 5-methyl-N-(3-(2-methylpyridin-4-yl)-5-(trifluoromethyl)phenyl)-1H-pyrazole-3-carboxamide], a half-maximal effect (EC50) was put at 3.3 ± 0.7 µM. In addition, the relative reporter activity under setting [1] was determined as 0.32±0.03.

Take `Nc1cc(-c2ccc3[nH]ccc3c2)cc(C(F)(F)F)c1` [compound 93, 3-(1H-indol-5-yl)-5-(trifluoromethyl)aniline]: it took 1.4 ± 0.4 µM to reach a half-maximal effect (EC50).

Compound `Cc1cc(-c2cc(NC(=O)C3CCC3)cc(C(F)(F)F)c2)ccn1` [compound 82, N-(3-(2-methylpyridin-4-yl)-5-(trifluoromethyl)phenyl)cyclobutanecarboxamide] registered an EC50 of 0.6 ± 0.2 µM. Under setting [1], this compound gave a relative reporter activity of 0.17±0.09. For the compound `CN(C)c1ccc(-c2cc(N)cc(C(F)(F)F)c2)cc1` [compound 95, N4',N4'-dimethyl-5-(trifluoromethyl)-[1,1'-biphenyl]-3,4'-diamine], the relative reporter activity entry (at 20 µM) was “(0.41±0.11 at 20 µM)”. The compound `Nc1cc(-c2cscn2)cc(C(F)(F)F)c1` [compound 63, 3-(thiazol-4-yl)-5-(trifluoromethyl)aniline] yielded an EC50 of 11 ± 3 µM. Under setting [1], this compound had a relative reporter activity of 0.58±0.10. In the case of `Cc1nc(-c2cc(N)cc(C(F)(F)F)c2)cs1` [compound 64, 3-(2-methylthiazol-4-yl)-5-(trifluoromethyl)aniline], the relative reporter activity entry (at 120 µM) is “(0.67±0.06 at 120 µM)”. `CC(=O)c1ccc(-c2ccnc(C)c2)cc1N` [compound 112, 1-(2-amino-4-(2-methylpyridin-4-yl)phenyl)ethan-1-one]: it took 18 ± 10 µM to reach a half-maximal effect (EC50). The relative reporter activity under setting [1] came out at 0.58±0.09. With `COC(=O)c1ccc(-c2cc(N)cc(C(F)(F)F)c2)s1` [compound 58, methyl 5-(3-amino-5-(trifluoromethyl)phenyl)thiophene-2-carboxylate], it took 3.5 ± 1.8 µM to reach a half-maximal effect (EC50). `CCOc1cc(C(=O)Nc2cc(-n3cnc(C)c3)cc(C(F)(F)F)c2)c2ccccc2n1` [compound 8, 2-ethoxy-N-(3-(4-methyl-1H-imidazol-1-yl)-5-(trifluoromethyl)phenyl)quinoline-4-carboxamide]: the EC50 was determined as 1.1 ± 0.3 µM. This compound also gave a relative reporter activity under setting [1] of 0.57±0.04.

As a reminder, the EC50 is the midpoint of the concentration-response curve.
